For data set [1], the system named is ischemia and reperfusion of the heart or skeletal muscle. The note with it: rabbits, cited from earlier work.
In data set [2] the test system is colitis induced by intraluminal trinitrobenzene sulfonic acid. The note with it: rats, colitis by trinitrobenzene sulfonic acid in 50% ethanol; cited from earlier work.
The next data set addresses T1, TANK-2 enzyme (Homo sapiens, UniProt Q9H2K2).
T1 construct: made in house
T1 sequence (Q9H2K2 1-1166): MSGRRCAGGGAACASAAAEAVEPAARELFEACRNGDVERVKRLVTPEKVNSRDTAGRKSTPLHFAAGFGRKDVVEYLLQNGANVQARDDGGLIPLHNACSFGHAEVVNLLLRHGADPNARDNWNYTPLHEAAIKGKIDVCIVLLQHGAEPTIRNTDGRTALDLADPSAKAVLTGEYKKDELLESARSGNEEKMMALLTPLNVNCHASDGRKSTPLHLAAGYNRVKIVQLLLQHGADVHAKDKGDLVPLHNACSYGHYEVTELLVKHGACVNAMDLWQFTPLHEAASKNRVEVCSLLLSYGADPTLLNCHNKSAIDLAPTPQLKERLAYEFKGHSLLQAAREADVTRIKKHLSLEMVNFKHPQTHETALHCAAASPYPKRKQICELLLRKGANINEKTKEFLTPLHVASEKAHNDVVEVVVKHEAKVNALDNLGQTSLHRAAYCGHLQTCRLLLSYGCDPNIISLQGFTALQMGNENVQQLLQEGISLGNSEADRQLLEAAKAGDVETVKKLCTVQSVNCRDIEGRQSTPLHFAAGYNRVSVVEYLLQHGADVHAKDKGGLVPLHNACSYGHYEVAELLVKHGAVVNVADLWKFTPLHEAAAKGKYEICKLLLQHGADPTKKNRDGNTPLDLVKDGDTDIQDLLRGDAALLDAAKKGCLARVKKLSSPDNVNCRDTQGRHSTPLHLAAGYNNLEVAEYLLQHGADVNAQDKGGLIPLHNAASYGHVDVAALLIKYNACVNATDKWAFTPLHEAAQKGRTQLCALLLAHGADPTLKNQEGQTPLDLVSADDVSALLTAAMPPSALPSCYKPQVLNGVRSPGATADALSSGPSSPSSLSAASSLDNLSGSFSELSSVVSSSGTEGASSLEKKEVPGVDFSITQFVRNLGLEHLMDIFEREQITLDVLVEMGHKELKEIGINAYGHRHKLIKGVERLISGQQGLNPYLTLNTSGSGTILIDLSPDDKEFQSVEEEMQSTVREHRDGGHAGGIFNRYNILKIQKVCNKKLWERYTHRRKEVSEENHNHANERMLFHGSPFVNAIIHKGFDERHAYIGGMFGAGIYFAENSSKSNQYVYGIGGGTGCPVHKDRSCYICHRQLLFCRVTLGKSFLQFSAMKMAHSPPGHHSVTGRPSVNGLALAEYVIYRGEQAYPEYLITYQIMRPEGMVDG
In words: In vitro scintillation proximity assay (SPA) for TANK-2 inhibitory activity. Type of data set: biochemical. The note with it: auto-poly(ADP-ribosyl)ation, Ni flash plates; 96-well results if available, otherwise 384-well; tested between 10^-5 M and 3x10^-8 M; read-out: in vitro SPA assay TANK-2 pIC50 (converted). A general note: In a scintillation proximity assay essentially only radioactivity close to the scintillant gives light.

The target of the next data set is T2, Human PARP-1 enzyme (Homo sapiens, UniProt P09874).
T2 construct: purchased Trevigen
In words: In vitro scintillation proximity assay (SPA) for PARP-1 inhibitory activity. The data set is classed as biochemical. The note with it: nicked DNA activated PARP-1, [3H]-NAD+, biotinylated histones; tested between 10^-5 M and 3x10^-9 M; read-out: in vitro SPA assay PARP-1 pIC50 (converted).

T2 sequence (P09874 whole entry): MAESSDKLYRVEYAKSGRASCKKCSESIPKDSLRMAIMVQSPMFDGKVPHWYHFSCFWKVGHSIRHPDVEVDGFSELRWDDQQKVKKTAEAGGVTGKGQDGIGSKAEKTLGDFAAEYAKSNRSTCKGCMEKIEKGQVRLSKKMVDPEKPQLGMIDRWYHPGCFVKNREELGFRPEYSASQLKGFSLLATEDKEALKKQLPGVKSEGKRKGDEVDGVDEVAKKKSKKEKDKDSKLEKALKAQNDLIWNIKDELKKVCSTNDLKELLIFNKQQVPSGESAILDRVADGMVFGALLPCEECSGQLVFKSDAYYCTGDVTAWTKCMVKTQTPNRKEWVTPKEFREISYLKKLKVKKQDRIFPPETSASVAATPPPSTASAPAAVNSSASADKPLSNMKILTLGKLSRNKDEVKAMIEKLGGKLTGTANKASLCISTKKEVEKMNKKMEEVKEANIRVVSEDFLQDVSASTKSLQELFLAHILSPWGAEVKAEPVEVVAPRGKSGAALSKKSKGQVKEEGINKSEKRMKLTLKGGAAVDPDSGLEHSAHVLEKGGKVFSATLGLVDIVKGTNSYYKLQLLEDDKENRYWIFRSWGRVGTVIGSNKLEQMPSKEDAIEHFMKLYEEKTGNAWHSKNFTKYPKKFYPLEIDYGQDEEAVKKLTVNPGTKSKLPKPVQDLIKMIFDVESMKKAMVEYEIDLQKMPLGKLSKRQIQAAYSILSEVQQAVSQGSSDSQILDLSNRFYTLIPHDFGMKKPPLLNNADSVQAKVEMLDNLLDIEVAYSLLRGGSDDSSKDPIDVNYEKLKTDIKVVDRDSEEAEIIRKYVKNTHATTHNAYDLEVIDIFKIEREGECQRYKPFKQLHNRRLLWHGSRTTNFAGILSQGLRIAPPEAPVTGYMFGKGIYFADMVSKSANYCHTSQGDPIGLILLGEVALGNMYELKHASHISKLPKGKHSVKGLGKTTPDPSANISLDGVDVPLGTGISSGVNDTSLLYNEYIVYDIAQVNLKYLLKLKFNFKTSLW

For the molecule `Oc1cccc2c(O)nccc12` [1,5-dihydroxyisoquinoline], in data set [1] (single injection 1 mg/kg), the “reduction in infarct size” value was 38-48%.
On to `NC(=O)c1cccc(N)c1` [3-amino-benzamide], for which the “effect on inflammatory response, morphology and energetic status of the distal colon” value in data set [2] was “reduced the inflammatory response and restored the morphology and the energetic status of the distal colon”. For the same molecule, in data set [1] (single injection 10 mg/kg, one minute before occlusion or one minute before reperfusion), the “reduction in infarct size in the heart” value is 32-42%.
Regarding `CCc1cc2ccc(CN3CCN(c4ccccc4)CC3)cc2[nH]c1=O` [Compound 6], the melting point (commonly the temperature, or range, at which the solid turns liquid) amounted to 242 °C. In addition, the IC50 on TANK-2 enzyme was 1900 nM. Further, the IC50 at Human PARP-1 enzyme was 0.938 nM.

Values taken from patent US8404713B2, “Quinolinone derivatives as PARP inhibitors” (Janssen Pharmaceutica NV, priority 2007, dated 2013).
